In ChEMBL document CHEMBL1128055, “Selective cytotoxic cyclolignans” (Bioorg Med Chem Lett, 1995):

Key:
[1] = system: CV-1; assay: Antineoplastic activity against CV-1 (monkey kidney fibroblast) cell line.; assay type: functional, cell-based, Cercopithecidae; settings: Chlorocebus aethiops
[2] = system: A549; assay: Antineoplastic activity against A-549 (human lung carcinoma) cell line.; assay type: functional, cell-based
[3] = system: HT-29; assay: Antineoplastic activity against HT-29 (human colon carcinoma) cell line.; assay type: functional, cell-based
[4] = system: P388; assay: Antineoplastic activity against P-388 (murine leukemia) cell line.; assay type: functional, cell-based; settings: Mus musculus
[5] = system: SK-MEL-28; assay: Antineoplastic activity against MEL-28 human melanoma carcinoma cell cultures; assay type: functional, cell-based
[6] = Selectivity index was evaluated by antineoplastic activity against HT-29 cells and compared with cytotoxicity against normal cells; assay type: functional

| Structure (SMILES) | IC50 [1] [nM] | IC50 [2] [nM] | IC50 [3] [nM] | IC50 [4] [nM] | IC50 [5] [nM] | Selectivity index [6] |
| --- | --- | --- | --- | --- | --- | --- |
| COC(=O)[C@H]1[C@H](c2cc(OC)c(OC)c(OC)c2)c2cc3c(cc2C(=O)[C@H]1CO)OCO3 | 5630 | 5630 | 5630 | 5630 | 5630 | – |
| COC(=O)[C@@H]1C(/C=N/NCC(F)(F)F)=Cc2cc3c(cc2[C@H]1c1cc(OC)c(OC)c(OC)c1)OCO3 | 480 | 190 | 48 | 480 | 480 | 10 |
| COc1cc([C@@H]2c3cc4c(cc3[C@H](O)[C@H]3COC(=O)[C@H]23)OCO4)cc(OC)c1OC [PODOFILOX] | 29 | 12 | 29 | 12 | – | – |
| COC(=O)[C@@H]1C(C=O)=Cc2cc3c(cc2[C@H]1c1cc(OC)c(OC)c(OC)c1)OCO3 [PODOPHYLLIC ALDEHYDE] | 230 | 120 | 12 | 230 | 230 | 20 |
| CO/N=C/[C@@H]1Cc2cc3c(cc2[C@@H](c2cc(OC)c(OC)c(OC)c2)[C@@H]1C(=O)OC)OCO3 | > 21900 | 21900 | > 21900 | 10900 | > 21900 | – |
| COc1cc([C@@H]2c3cc4c(cc3C[C@H]3COC(=O)[C@@H]32)OCO4)cc(OC)c1OC [DESOXYPODOPHYLLOTOXIN] | 6 | < 6 | 6 | 10 | – | – |
| COc1cc([C@@H]2c3cc4c(cc3C=C(C=O)[C@H]2CO)OCO4)cc(OC)c1OC | 630 | 250 | 250 | 250 | 250 | – |
| COC(=O)[C@@H]1C(/C=N/N)=Cc2cc3c(cc2[C@H]1c1cc(OC)c(OC)c(OC)c1)OCO3 | 2270 | 570 | 570 | 570 | 1140 | – |
| COC(=O)[C@H]1[C@H](c2cc(OC)c(OC)c(OC)c2)c2cc3c(cc2[C@H](O)[C@H]1CO)OCO3 | 450 | 220 | 450 | 220 | – | – |
| COc1cc([C@@H]2c3cc4c(cc3C(=O)[C@H]3COC(=O)[C@@H]23)OCO4)cc(OC)c1OC [PICROPODOPHYLLONE] | 48000 | 12000 | 12000 | 12000 | – | – |
| COC(=O)[C@H]1[C@H](c2cc(OC)c(OC)c(OC)c2)c2cc3c(cc2[C@H](OC(C)=O)[C@H]1COC(C)=O)OCO3 | 1100 | 1100 | 1100 | 1100 | – | – |
| COC(=O)[C@H]1[C@H](c2cc(OC)c(OC)c(OC)c2)c2cc3c(cc2C[C@H]1C=O)OCO3 | 2340 | 2340 | 2340 | 2340 | 2340 | – |
| COC(=O)[C@@H]1[C@H](CO)Cc2cc3c(cc2[C@H]1c1cc(OC)c(OC)c(OC)c1)OCO3 | 58 | 58 | 120 | 58 | 58 | – |
| COC(=O)[C@@H]1[C@H](COC(C)=O)Cc2cc3c(cc2[C@H]1c1cc(OC)c(OC)c(OC)c1)OCO3 | 210 | 210 | 210 | 210 | 210 | – |
| COC(=O)[C@@H]1C(/C=N/O)=Cc2cc3c(cc2[C@H]1c1cc(OC)c(OC)c(OC)c1)OCO3 | 2270 | 2270 | 2270 | 2270 | 2270 | – |
| COC(=O)[C@@H]1C(/C=N/Nc2ccccc2)=Cc2cc3c(cc2[C@H]1c1cc(OC)c(OC)c(OC)c1)OCO3 | 1940 | 970 | 39 | 1940 | 4840 | 50 |
| CO/N=C/C1=Cc2cc3c(cc2[C@@H](c2cc(OC)c(OC)c(OC)c2)[C@@H]1C(=O)OC)OCO3 | 220 | 220 | 220 | 220 | 220 | – |
| COc1cc([C@@H]2c3cc4c(cc3C=C(/C=N/Nc3ccccc3)[C@H]2CO)OCO4)cc(OC)c1OC | 1020 | 1020 | 2050 | 1020 | 510 | – |
